Assay results published in article PMC2949846 (Virology Journal, 2010).
No end group written: not given here.

Assay: physchem
Conditions: water

Sequence: FHNSNSRILFNQENNNFMYS [B]
- solubility: 2000 µg/mL

Sequence: EAKSSIAKHFSLWKSYADADIKNSENK [A]
- solubility: 2000 µg/mL
